SMILES strings stand for the structures.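 Five concentrations, 48 hours, 96-well plates. The concentration for 50% growth inhibition is given as GI50. TGI: concentration producing complete growth inhibition.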 Some results are limits rather than exact numbers.

Among the test systems are LOX IMVI melanoma; OVCAR-4 ovarian; SK-MEL-5 melanoma; NCI/ADR-RES ovarian; OVCAR-3 ovarian; HT29 colon; DU-145 prostate; HCT-116 colon; EKVX NSCLC; NCI-H23 lung.
Assay in all cases: NCI anticancer screen, dose series, 48 h

`C/C=C(\C)C(=O)NC1=CC[C@@]2(C)C(=CCC3C2CC[C@@]2(C)C3CC[C@@H]2C(C)N(C)C)C1=O` (stereo not given in full): the GI50 in the assay with LOX IMVI melanoma was 1630 nM; with OVCAR-4 ovarian, 4.58 µM; in the assay on SK-MEL-5 melanoma, 1390 nM; in the assay on NCI/ADR-RES ovarian, 6.44 µM; with OVCAR-3 ovarian it was 2500 nM; with HT29 colon it was 570 nM. Also, the GI50 is 7.06 µM in the assay with DU-145 prostate, 1410 nM in the assay on HCT-116 colon, 3.17 µM in the assay with EKVX NSCLC and 3.95 µM with NCI-H23 lung. The TGI with LOX IMVI melanoma was 3.58 µM; with OVCAR-4 ovarian it was over 50.2 µM; in the assay on SK-MEL-5 melanoma it was 2.95 µM; in the assay on NCI/ADR-RES ovarian it was 42.5 µM; with OVCAR-3 ovarian, 12.8 µM; with HT29 colon, 2.6 µM. The TGI is over 59.5 µM with DU-145 prostate, 3.1 µM with HCT-116 colon, 51.8 µM with EKVX NSCLC and 25.1 µM in the assay on NCI-H23 lung.
In the case of `O=C(Nc1ccc([As](=O)(O)O)cc1)Nc1cccc(Cl)c1Cl`, the TGI in the assay on LOX IMVI melanoma, in the assay on OVCAR-4 ovarian, in the assay on SK-MEL-5 melanoma, in the assay with NCI/ADR-RES ovarian, in the assay on OVCAR-3 ovarian and in the assay with HT29 colon was over 100 µM in each case. Besides, the TGI with DU-145 prostate, in the assay with HCT-116 colon, in the assay on EKVX NSCLC and in the assay with NCI-H23 lung was over 100 µM throughout.
On to `CC(=O)NC1C(OC[C@@H](CC(=O)N[C@@H](CC(=O)O)CC(=O)N[C@H](CC(=O)N[C@@H](CCCN)CC(=O)N[C@@H](CCCN)CC(=O)N[C@H](CC(N)=O)C(C)C)C(C)C)NC(=O)C[C@@H](N)C(C)C)OC(CO)C(O)C1O` (stereo not given in full), for which the GI50 with LOX IMVI melanoma is over 100000 nM; in the assay with OVCAR-4 ovarian, over 100 µM; in the assay with SK-MEL-5 melanoma, over 100000 nM; with NCI/ADR-RES ovarian, over 100 µM; in the assay on OVCAR-3 ovarian it was over 100000 nM; in the assay on HT29 colon, over 100000 nM. Moreover, the GI50 with DU-145 prostate was over 100 µM; with HCT-116 colon, over 100000 nM; in the assay with EKVX NSCLC, over 100 µM; in the assay on NCI-H23 lung, over 100 µM. The TGI with LOX IMVI melanoma, with OVCAR-4 ovarian, with SK-MEL-5 melanoma, with NCI/ADR-RES ovarian, in the assay with OVCAR-3 ovarian and in the assay with HT29 colon was over 100 µM throughout. Moreover, the TGI with DU-145 prostate, in the assay on HCT-116 colon, in the assay with EKVX NSCLC and in the assay with NCI-H23 lung was over 100 µM each time.

Source of the values: PubChem BioAssay (NCI).
